According to US20150351390A1, “COMPOSITIONS AND METHODS FOR AUXIN-ANALOG CONJUGATION” (PIONEER HI-BRED INTERNATIONAL, INC., priority 2012, published 2015):

Experiments:
[1] = system: Transgenic Arabidopsis lines overexpressing SEQ ID NO:3; test: Root growth inhibition by 2,4-D, transgenic Arabidopsis; type: in vivo, Arabidopsis thaliana
Method: Arabidopsis (Arabidopsis thaliana) expressing GH3 genes were produced using floral dip methods of Agrobacterium mediated transformation (Clough S J and Bent A F, 1998, Plant J. 16:735-43; Chung M. H., Chen M. K., Pan S. M. 2000. Transgenic Res. 9: 471-476; Weigel D. and Glazebrook J. 2006. In Planta Transformation of Arabidopsis. Cold Spring Harb. Protoc. 4668 3). Briefly, Arabidopsis (Col-0) plants were grown in soil in pots. The first inflorescence shoots were removed as soon as they emerged. Plants were ready for transformation when the secondary inflorescence shoots were about 3 inches tall. Agrobacterium carrying a suitable binary vector were cultured in 5 mL LB medium at 28° C. with shaking at 200 rpm for two days. 1 mL of the culture was then inoculated into 200 ml fresh LB media and incubated again with vigorous agitation for an additional 20-24 hours at 28° C. The Agrobacterium culture was then subjected to centrifugation at 6000 rpm in a GSA rotor (or equivalent) for 10 minutes. The pellet was resuspended in 20-100 mL of spraying medium containing 5% (wt/v) sucrose and 0.01-0.2% (v/v) Silwet L-77. The Agrobacterium suspension was transferred into a hand-held sprayer for spraying onto inflorescences of the transformation-ready Arabidopsis plants. The sprayed plants were covered with a humidity dome for 24 hours before the cover was removed for growth under normal growing conditions. Seeds were harvested. Screening of transformants was performed under sterile conditions. Surface sterilized seeds were placed onto MS-Agar plates (Phyto Technology labs Prod. No. M519) containing appropriate selective antibiotics (kanamycin 50 mg/L, hygromycin 20 mg/L, or bialaphos 10 mg/L). Anti-Agrobacteirum antibiotic timentin was also included in the media. Plates were cultured at 21° C. at 16 hr light for 7-14 days. Transgenic events harboring GH3 genes were germinated and transferred to soil pots in the greenhouse for evaluation of herbicide tolerance.
A selectable marker gene used to facilitate Arabidopsis transformation was a chimeric gene composed of the 35S promoter from Cauliflower Mosaic Virus (Odell et al. 1985. Nature 313:810-812), the bar gene from Streptomyces hygroscopicus (Thompson et al., 1987. EMBO J. 6:2519-2523), and the 3′UBQ14 terminator region from Arabidopsis (Callis et al., 1995. Genetics 139 (2), 921-939). Another visual selectable marker gene used to facilitate Arabidopsis transformation was a chimeric gene composed of the UBQ promoter from soybean (Xing et al., 2010. Plant Biotechnology Journal 8:772-782), the YFP coding sequence, and the 3′ region of the nopaline synthase gene from the T-DNA of the Ti plasmid of Agrobacterium tumefaciens. Bialophos was used as the selection agent during the transformation process. GH3 genes were expressed with a constitutive promoter, for example, the Arabidopsis UBQ10 promoter (Norris et al., 1993. Plant Mol Biol 21:895-906) or UBQ3 promoter (Norris et al., 1993. Plant Mol Biol 21:895-906) for strong or moderate expression, a GH3 coding sequence, and the 3′ terminator region of the French bean phaseolin gene (Sun et al., 1981. Nature 289:37-41; Slightom et al., 1983. Proc. Natl. Acad. Sci. U.S.A. 80 (7), 1897-1901)
Seeds of Arabidopsis ecotype Columbia (Col-0) and GH3 transgenic events were surface sterilized with 70% (v/v) ethanol for 5 minutes and 10% (v/v) bleach for 15 minutes. After being washed three times with distilled water, the seeds were incubated at 4° C. for 4 days. The seeds were then germinated on 1× Murashige and Skoog (MS) medium with a pH of 5.7, 3% (w/v) sucrose, and 0.8% (w/v) agar. After incubation for 3.5 days, the seedlings were transferred to the basal medium containing B5 vitamin, 3% (w/v) sucrose, […] MES (pH 5.7), 1.2% (w/v) agar, and filter sterilized auxin herbicides 2,4-D or dicamba was added to the media at 60° C. […] The concentrations of dicmaba were 0 μM, 1.0 μM, 5.0 μM, 7.0 μM, and 10 μM. […]

[2] = system: Soybean seeds; test: Phytotoxicity evaluation during soybean germination; type: in vivo; settings: 1 μM in germination media, 10 days
Method: To evaluate the effect of synthetic auxin conjugates in plants, 2,4-D-Asp, 2,4-D-Glu, dicamba-Asp, and dicamba-Glu were synthesized (Irvine Chemistry Laboratory, Anaheim, Calif.) and tested for auxin effects during soybean germination.
Asp and Glu conjugates of 2,4-D and dicamba were dissolved in a small quantity of Na2CO3 and ethanol, respectively, diluted in ddH2O to obtain 10 mM stock solution, and filter sterilized. Soybean seeds of a Pioneer elite germplasm were sterilized with chlorine gas as following: a) two layers of seeds were placed in a 100×25 mm plastic Petri dish; b) in an exhaust fume hood, seeds were placed into a glass desiccator with a 250 mL beaker containing 100 mL bleach (5% NaOC1) and 3.5 mL 12N HCl was slowly added to the beaker; c) the lid was sealed closed on the desiccator and the seeds sterilized for at least 24 hr.
Sterilized soybean seeds were then imbibed in ddH2O under sterile conditions at 25° C. for 24 hours before germination test. For germination test, 6-8 imbibed seeds were placed on a 100×25 mm deep Petri dish plate containing 50 ml germination media supplemented with or without auxin herbicide conjugates. 1 L seed germination media contains 3.21 g GAMBORG B-5 basal medium (PhytoTech), 20 g sucrose, 5 g tissue culture agar, and is pH adjusted to 5.7. Media was autoclaved at 121° C. for 25 min and cooled to 60° C. before the addition of auxin conjugates. Germination was carried out in a Percival growth chamber at 25° C. under 18 hr light and 6 hr dark cycle at 90 to 150 μE/m2/s and grown for 10 days.

O=C(O)COc1ccc(Cl)cc1Cl [2,4-D, 2,4-dichlorophenoxyacetic acid]
Percentage of the average root length compared with 0 nM 2,4-D treatment ([1]; Line #1, 10 nM 2,4-D): 80% | Percentage of the average root length compared with 0 nM 2,4-D treatment ([1]; Line #1, 100 nM 2,4-D): 43% | Percentage of the average root length compared with 0 nM 2,4-D treatment ([1]; Line #2, 10 nM 2,4-D): 83% | Percentage of the average root length compared with 0 nM 2,4-D treatment ([1]; Line #2, 100 nM 2,4-D): 36% | Percentage of the average root length compared with 0 nM 2,4-D treatment ([1]; Line #3, 10 nM 2,4-D): 88% | Percentage of the average root length compared with 0 nM 2,4-D treatment ([1]; Line #3, 100 nM 2,4-D): 63% | Percentage of the average root length compared with 0 nM 2,4-D treatment ([1]; Line #4, 10 nM 2,4-D): 101% | Percentage of the average root length compared with 0 nM 2,4-D treatment ([1]; Line #4, 100 nM 2,4-D): 60% | Percentage of the average root length compared with 0 nM 2,4-D treatment ([1]; Line #5, 10 nM 2,4-D): 76% | Percentage of the average root length compared with 0 nM 2,4-D treatment ([1]; Line #5, 100 nM 2,4-D): 50% | Inhibition of root growth by 2,4-D ([1]; transgenic line #4, 10 nM 2,4-D, result in words): completely alleviated | Soybean seed germination and growth [2]: seed germination was arrested
